Experimental data: ChEMBL document CHEMBL1201862, “PubChem BioAssay data set” (2004)
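Interpolation was linear, between the two tested concentrations surrounding the appropriate level; five concentrations were tested over 48 hours in 96-well plates. Abbreviation: GI50, concentration required for 50% inhibition of growth.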 Activity calls are given as the source filed them. Cut-off read from the data, not from the text of the source: active = GI50 up to about 1.1 µM and inactive = higher.

What was measured:
Experiment in all cases: growth of human tumour cells (NCI), 48 h
HCT-116 = test system: HCT-116
CAKI-1 = test system: CAKI-1
NCI-H226 = test system: NCI-H226
NCI-H23 = test system: NCI-H23
M14 = test system: M14
SF-268 = test system: SF-268
HL-60 = test system: HL-60
OVCAR-5 = test system: OVCAR-5
A498 = test system: A498
RXF 631 = test system: RXF 631
SNB-78 = test system: SNB-78
OVCAR-3 = test system: OVCAR-3
SF-539 = test system: SF-539
SK-MEL-5 = test system: SK-MEL-5
LXFL 529 = test system: LXFL 529
SNB-75 = test system: SNB-75
UACC-62 = test system: UACC-62
DMS-114 = test system: DMS-114
KM-20L2 = test system: KM-20L2
HOP-62 = test system: HOP-62
DMS-273 = test system: DMS-273
CCRF-CEM = test system: CCRF-CEM
XF498 = test system: XF498
A549 = test system: A549
OVCAR-8 = test system: OVCAR-8
SN12C = test system: SN12C
EKVX = test system: EKVX
OVCAR-4 = test system: OVCAR-4
SW-620 = test system: SW-620
UACC-257 = test system: UACC-257
HT-29 = test system: HT-29
COLO 205 = test system: COLO 205
LOX IMVI = test system: LOX IMVI
SK-MEL-28 = test system: SK-MEL-28
SK-OV-3 = test system: SK-OV-3
SK-MEL-2 = test system: SK-MEL-2
MOLT-4 = test system: MOLT-4
NCI-H522 = test system: NCI-H522
K562 = test system: K562
U-251 = test system: U-251
Malme-3M = test system: Malme-3M
M19-MEL = test system: M19-MEL
TK-10 = test system: TK-10
NCI-H460 = test system: NCI-H460
RPMI-8226 = test system: RPMI-8226
IGROV-1 = test system: IGROV-1
HCC 2998 = test system: HCC 2998
DLD-1 = test system: DLD-1
HOP-92 = test system: HOP-92
UO-31 = test system: UO-31
SNB-19 = test system: SNB-19
786-0 = test system: 786-0
SF-295 = test system: SF-295

Measured: GI50

CCN1C2=NC(=O)N(C)C(=O)C2(Cl)C(C(SC)S(=O)(=O)c2ccc(C)cc2)c2ccccc21 (stereo not drawn)
inactive: HCT-116 20.1 µM | CAKI-1 34 µM | NCI-H226 32.4 µM | NCI-H23 20 µM | M14 24.2 µM | SF-268 39.2 µM | HL-60 4.2 µM | OVCAR-5 > 100 µM | A498 > 100 µM | RXF 631 21.4 µM | SNB-78 24.2 µM | OVCAR-3 24.1 µM | SF-539 37.5 µM | SK-MEL-5 35.6 µM | LXFL 529 23.3 µM | SNB-75 20.7 µM | UACC-62 44.7 µM | DMS-114 41.1 µM | KM-20L2 57.8 µM | HOP-62 > 100 µM | DMS-273 31.6 µM | CCRF-CEM 5.62 µM | XF498 49.5 µM | A549 85.1 µM | OVCAR-8 21.2 µM | SN12C 61 µM | EKVX > 100 µM | OVCAR-4 22.9 µM | SW-620 31.6 µM | UACC-257 23.6 µM | HT-29 34.8 µM | COLO 205 31.6 µM | LOX IMVI 31.3 µM | SK-MEL-28 24.3 µM | SK-OV-3 > 100 µM | SK-MEL-2 55.3 µM | MOLT-4 3.7 µM | NCI-H522 11.8 µM | K562 20.7 µM | U-251 79.8 µM | Malme-3M 47.3 µM | M19-MEL 24.7 µM | TK-10 > 100 µM | NCI-H460 83.4 µM | RPMI-8226 12.7 µM | IGROV-1 76.9 µM | HCC 2998 > 100 µM | DLD-1 33.4 µM | HOP-92 30.6 µM | UO-31 19.9 µM | SNB-19 51.9 µM | 786-0 25.1 µM | SF-295 51.8 µM
